Laboratory results as given in PubChem BioAssay AID2060511 (Molecular Pharmacology Branch, DTP, NCI, 2025).

Test system: 422866-222-R5-J1-PDC spheroids with HUVEC/MSC, viability
Assay: Anticancer human tumor 422866-222-R5-J1-PDC patient-derived pancreatic adenocarcinoma cell line growth inhibition [GQUAD]
Details: for IC50: curve of first compound; for viability, T/C: stronger effect = lower value
In short: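 Tumor cells were grown as complex spheroids with HUVEC endothelial cells and mesenchymal stem cells as stroma. G-quadruplex stabilizers were combined with targeted agents over half-log dilutions from near the clinical Cmax, or from 10 microM.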

[1] = second compound 0.0316 µM, first compound 0.0316 µM
[2] = second compound 0.0316 µM, first compound 0.316 µM
[3] = second compound 0.1 µM, first compound 0.0316 µM
[4] = second compound 0.1 µM, first compound 0.316 µM
[5] = second compound 0.316 µM, first compound 0.0316 µM
[6] = second compound 0.316 µM, first compound 0.316 µM
[7] = second compound 1 µM, first compound 0.0316 µM
[8] = second compound 1 µM, first compound 0.316 µM
[9] = second compound 3.16 µM, first compound 0.0316 µM
[10] = second compound 3.16 µM, first compound 0.316 µM
[11] = second compound 10 µM, first compound 0.0316 µM
[12] = second compound 10 µM, first compound 0.316 µM
[13] = second compound 0.0316 µM, first compound 0.1 µM
[14] = second compound 0.0316 µM, first compound 1 µM
[15] = second compound 0.0316 µM, first compound 3.16 µM
[16] = second compound 0.0316 µM, first compound 10 µM
[17] = second compound 0.1 µM, first compound 0.1 µM
[18] = second compound 0.1 µM, first compound 1 µM
[19] = second compound 0.1 µM, first compound 3.16 µM
[20] = second compound 0.1 µM, first compound 10 µM
[21] = second compound 0.316 µM, first compound 0.1 µM
[22] = second compound 0.316 µM, first compound 1 µM
[23] = second compound 0.316 µM, first compound 3.16 µM
[24] = second compound 0.316 µM, first compound 10 µM
[25] = second compound 1 µM, first compound 0.1 µM
[26] = second compound 1 µM, first compound 1 µM
[27] = second compound 1 µM, first compound 3.16 µM
[28] = second compound 1 µM, first compound 10 µM
[29] = second compound 3.16 µM, first compound 0.1 µM
[30] = second compound 3.16 µM, first compound 1 µM
[31] = second compound 3.16 µM, first compound 3.16 µM
[32] = second compound 3.16 µM, first compound 10 µM
[33] = second compound 10 µM, first compound 0.1 µM
[34] = second compound 10 µM, first compound 1 µM
[35] = second compound 10 µM, first compound 3.16 µM
[36] = second compound 10 µM, first compound 10 µM
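Further: spheroids exposed to compounds for seven days before reading.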
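Wherever viability, T/C is given: percent viability relative to DMSO vehicle control taken as 100%.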

CCc1c2c(nc3ccc(O)cc13)-c1cc3c(c(=O)n1C2)COC(=O)[C@]3(O)CC + CN(C)c1ccc(Nc2c3ccc(NC(=O)CCN4CCCC4)cc3nc3cc(NC(=O)CCN4CCCC4)ccc23)cc1
IC50 (second compound 0.0316 µM): 6.8 nM | IC50 (second compound 0.1 µM): 49 nM | IC50 (second compound 0.316 µM): 2.86 nM | IC50 (second compound 1 µM): 2.41 nM | IC50 (second compound 3.16 µM): 110 nM | IC50 (second compound 10 µM): > 316 nM | viability, T/C (second compound 0.0316 µM, first compound 0.000999 µM): 64.9% | viability, T/C (second compound 0.0316 µM, first compound 0.00316 µM): 54.1% | viability, T/C (second compound 0.0316 µM, first compound 0.00999 µM): 46.6% | viability, T/C [1]: 46.7% | viability, T/C (second compound 0.0316 µM, first compound 0.0999 µM): 48% | viability, T/C [2]: 47.1% | viability, T/C (second compound 0.1 µM, first compound 0.000999 µM): 63.6% | viability, T/C (second compound 0.1 µM, first compound 0.00316 µM): 46.9% | viability, T/C (second compound 0.1 µM, first compound 0.00999 µM): 46.7% | viability, T/C [3]: 57.1% | viability, T/C (second compound 0.1 µM, first compound 0.0999 µM): 57.8% | viability, T/C [4]: 39.2% | viability, T/C (second compound 0.316 µM, first compound 0.000999 µM): 77.5% | viability, T/C (second compound 0.316 µM, first compound 0.00316 µM): 47.2% | viability, T/C (second compound 0.316 µM, first compound 0.00999 µM): 46.4% | viability, T/C [5]: 55.1% | viability, T/C (second compound 0.316 µM, first compound 0.0999 µM): 50.5% | viability, T/C [6]: 37.3% | viability, T/C (second compound 1 µM, first compound 0.000999 µM): 54% | viability, T/C (second compound 1 µM, first compound 0.00316 µM): 43.4% | viability, T/C (second compound 1 µM, first compound 0.00999 µM): 45.2% | viability, T/C [7]: 57.1% | viability, T/C (second compound 1 µM, first compound 0.0999 µM): 46.8% | viability, T/C [8]: 40.5% | viability, T/C (second compound 3.16 µM, first compound 0.000999 µM): 58.6% | viability, T/C (second compound 3.16 µM, first compound 0.00316 µM): 54.3% | viability, T/C (second compound 3.16 µM, first compound 0.00999 µM): 40.6% | viability, T/C [9]: 48.5% | viability, T/C (second compound 3.16 µM, first compound 0.0999 µM): 63.6% | viability, T/C [10]: 43.9% | viability, T/C (second compound 10 µM, first compound 0.000999 µM): 58.4% | viability, T/C (second compound 10 µM, first compound 0.00316 µM): 49.7% | viability, T/C (second compound 10 µM, first compound 0.00999 µM): 58.3% | viability, T/C [11]: 50.8% | viability, T/C (second compound 10 µM, first compound 0.0999 µM): 64.5% | viability, T/C [12]: 41%

O=c1[nH]cc(F)c(=O)[nH]1 + CN(C)c1ccc(Nc2c3ccc(NC(=O)CCN4CCCC4)cc3nc3cc(NC(=O)CCN4CCCC4)ccc23)cc1
IC50 (second compound 0.0316 µM): > 10000 nM | IC50 (second compound 0.1 µM): > 10000 nM | IC50 (second compound 0.316 µM): > 10000 nM | IC50 (second compound 1 µM): > 10000 nM | IC50 (second compound 3.16 µM): > 10000 nM | IC50 (second compound 10 µM): > 10000 nM | viability, T/C [1]: 96.8% | viability, T/C [13]: 86.5% | viability, T/C [2]: 97% | viability, T/C [14]: 84.5% | viability, T/C [15]: 82.2% | viability, T/C [16]: 66.2% | viability, T/C [3]: 99.7% | viability, T/C [17]: 74.6% | viability, T/C [4]: 104% | viability, T/C [18]: 75.5% | viability, T/C [19]: 71.2% | viability, T/C [20]: 72% | viability, T/C [5]: 88.6% | viability, T/C [21]: 79% | viability, T/C [6]: 75.4% | viability, T/C [22]: 88.9% | viability, T/C [23]: 67.3% | viability, T/C [24]: 68.4% | viability, T/C [7]: 88.6% | viability, T/C [25]: 77% | viability, T/C [8]: 86.5% | viability, T/C [26]: 79% | viability, T/C [27]: 70.8% | viability, T/C [28]: 67.9% | viability, T/C [9]: 78.8% | viability, T/C [29]: 79.4% | viability, T/C [10]: 86.2% | viability, T/C [30]: 88.1% | viability, T/C [31]: 65.9% | viability, T/C [32]: 53.6% | viability, T/C [11]: 91.3% | viability, T/C [33]: 108% | viability, T/C [12]: 93.8% | viability, T/C [34]: 84% | viability, T/C [35]: 75.2% | viability, T/C [36]: 76.6%

CC(=O)O[C@H]1C(=O)[C@@]2(C)[C@H]([C@H](OC(=O)c3ccccc3)[C@]3(O)C[C@H](OC(=O)[C@H](O)[C@@H](NC(=O)c4ccccc4)c4ccccc4)C(C)=C1C3(C)C)[C@]1(OC(C)=O)CO[C@@H]1C[C@@H]2O + Cc1cnc(CNC(=O)c2c(=O)c3ccc(N4CCCN(C)CC4)nc3n3c2sc2ccccc23)cn1
IC50 (second compound 0.0316 µM): > 10000 nM | IC50 (second compound 0.1 µM): > 10000 nM | IC50 (second compound 0.316 µM): > 10000 nM | IC50 (second compound 1 µM): > 10000 nM | IC50 (second compound 3.16 µM): > 10000 nM | IC50 (second compound 10 µM): > 10000 nM | viability, T/C [1]: 81% | viability, T/C [13]: 67.2% | viability, T/C [2]: 80.3% | viability, T/C [14]: 71.9% | viability, T/C [15]: 73.8% | viability, T/C [16]: 91.6% | viability, T/C [3]: 88% | viability, T/C [17]: 86.3% | viability, T/C [4]: 77.1% | viability, T/C [18]: 86.2% | viability, T/C [19]: 95.5% | viability, T/C [20]: 97.4% | viability, T/C [5]: 89.5% | viability, T/C [21]: 82.8% | viability, T/C [6]: 85.3% | viability, T/C [22]: 107% | viability, T/C [23]: 115% | viability, T/C [24]: 117% | viability, T/C [7]: 79.2% | viability, T/C [25]: 74.6% | viability, T/C [8]: 86.5% | viability, T/C [26]: 94.5% | viability, T/C [27]: 117% | viability, T/C [28]: 119% | viability, T/C [9]: 83.3% | viability, T/C [29]: 94.5% | viability, T/C [10]: 94.1% | viability, T/C [30]: 91.7% | viability, T/C [31]: 118% | viability, T/C [32]: 107% | viability, T/C [11]: 80.1% | viability, T/C [33]: 78.8% | viability, T/C [12]: 71.6% | viability, T/C [34]: 101% | viability, T/C [35]: 104% | viability, T/C [36]: 123%

C=CCn1c(=O)c2cnc(Nc3ccc(N4CCN(C)CC4)cc3)nc2n1-c1cccc(C(C)(C)O)n1 + CN(C)c1ccc(Nc2c3ccc(NC(=O)CCN4CCCC4)cc3nc3cc(NC(=O)CCN4CCCC4)ccc23)cc1
IC50 (second compound 0.0316 µM): 459 nM | IC50 (second compound 0.1 µM): 682 nM | IC50 (second compound 0.316 µM): 489 nM | IC50 (second compound 1 µM): 548 nM | IC50 (second compound 3.16 µM): 601 nM | IC50 (second compound 10 µM): 1710 nM | viability, T/C [1]: 109% | viability, T/C [13]: 123% | viability, T/C [2]: 56.4% | viability, T/C [14]: 37.7% | viability, T/C [15]: 40.3% | viability, T/C [16]: 31.5% | viability, T/C [3]: 106% | viability, T/C [17]: 96.1% | viability, T/C [4]: 61.5% | viability, T/C [18]: 47.3% | viability, T/C [19]: 34.2% | viability, T/C [20]: 37.5% | viability, T/C [5]: 128% | viability, T/C [21]: 95.1% | viability, T/C [6]: 57.1% | viability, T/C [22]: 38.4% | viability, T/C [23]: 34.9% | viability, T/C [24]: 39.5% | viability, T/C [7]: 95.3% | viability, T/C [25]: 77.2% | viability, T/C [8]: 62.3% | viability, T/C [26]: 35.4% | viability, T/C [27]: 39.6% | viability, T/C [28]: 34.2% | viability, T/C [9]: 99.7% | viability, T/C [29]: 87.2% | viability, T/C [10]: 56.7% | viability, T/C [30]: 42% | viability, T/C [31]: 48.2% | viability, T/C [32]: 42.6% | viability, T/C [11]: 95% | viability, T/C [33]: 80% | viability, T/C [12]: 62.3% | viability, T/C [34]: 45.5% | viability, T/C [35]: 56.3% | viability, T/C [36]: 45.1%
